Measured values published in patent publication US20250236608A1, “EGFR INHIBITORS” (Blueprint Medicines Corporation, priority 2022, published 2025).

Assays:
[1] = target: EGFR L858R (Homo sapiens (Human), UniProt P00533, L858R); experiment: Biochemical EGFR inhibition assay, EGFR L858R; conditions: Caliper mobility shift; 1.0 mM ATP or ATP Km; read-out: Enz EGFR_L858R IC50
[2] = target: EGFR (d746-750) (Homo sapiens (Human), UniProt P00533, DEL746-750); experiment: Biochemical EGFR inhibition assay, EGFR (d746-750); conditions: Caliper mobility shift; 1.0 mM ATP or ATP Km; read-out: Enz EGFR_Exon19-del746-750 IC50
[3] = target: pEGFR (Tyr1068) in PC-9 cells (Ex19Del) (Homo sapiens (Human), UniProt P00533, DEL746-750); experiment: PC-9 pEGFR AlphaLISA assay; format: cell-based; conditions: 4 hours incubation, p-EGFR (Tyr1068) AlphaLISA, read-out: Ext pEGFR_PC-9 Ex19Del IC50
Method in brief: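 Compounds are added in ten 4-fold dilutions to adherent cells grown in serum-containing (10% FBS) phenol-free DMEM and left for 4 hours at 37° C. Phosphorylated receptor in lysates is quantified by bead-based AlphaLISA. IC50 values derive from inhibition plotted against log dose.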

Sequence of EGFR L858R (P00533 25-1210 L858R): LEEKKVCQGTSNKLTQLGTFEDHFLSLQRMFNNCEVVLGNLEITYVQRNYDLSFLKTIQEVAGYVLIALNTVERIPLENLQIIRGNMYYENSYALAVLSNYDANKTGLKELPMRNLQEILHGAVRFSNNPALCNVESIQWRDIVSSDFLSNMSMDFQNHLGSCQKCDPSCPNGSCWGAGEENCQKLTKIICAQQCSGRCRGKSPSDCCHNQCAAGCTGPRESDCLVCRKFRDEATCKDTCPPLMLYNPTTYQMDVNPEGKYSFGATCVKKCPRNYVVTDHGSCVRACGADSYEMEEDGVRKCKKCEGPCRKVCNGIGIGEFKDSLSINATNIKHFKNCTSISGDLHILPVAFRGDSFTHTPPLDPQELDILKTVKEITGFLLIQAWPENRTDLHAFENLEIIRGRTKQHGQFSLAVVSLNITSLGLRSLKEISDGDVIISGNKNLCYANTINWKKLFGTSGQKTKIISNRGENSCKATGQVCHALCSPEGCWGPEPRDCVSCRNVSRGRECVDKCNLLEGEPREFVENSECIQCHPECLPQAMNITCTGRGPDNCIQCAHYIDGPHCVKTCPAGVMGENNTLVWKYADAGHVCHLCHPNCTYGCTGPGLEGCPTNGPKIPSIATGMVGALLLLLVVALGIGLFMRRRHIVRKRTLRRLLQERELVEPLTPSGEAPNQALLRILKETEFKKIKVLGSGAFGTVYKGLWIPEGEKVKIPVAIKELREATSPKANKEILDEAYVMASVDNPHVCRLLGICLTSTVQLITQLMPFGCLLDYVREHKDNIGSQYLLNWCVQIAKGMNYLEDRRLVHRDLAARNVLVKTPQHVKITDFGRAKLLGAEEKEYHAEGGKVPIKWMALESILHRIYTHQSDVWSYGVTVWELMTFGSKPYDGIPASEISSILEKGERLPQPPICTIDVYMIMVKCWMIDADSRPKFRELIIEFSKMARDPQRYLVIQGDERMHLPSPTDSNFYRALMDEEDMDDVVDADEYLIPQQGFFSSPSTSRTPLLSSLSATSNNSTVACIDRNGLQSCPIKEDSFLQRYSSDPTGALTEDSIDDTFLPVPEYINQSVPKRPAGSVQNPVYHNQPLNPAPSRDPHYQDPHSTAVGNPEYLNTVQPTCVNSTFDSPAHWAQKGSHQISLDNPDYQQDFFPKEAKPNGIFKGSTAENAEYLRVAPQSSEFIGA
Sequence of EGFR (d746-750) (P00533 other isoform, or with tags, fused parts or gaps del 1-694/del 746-750 limits assumed): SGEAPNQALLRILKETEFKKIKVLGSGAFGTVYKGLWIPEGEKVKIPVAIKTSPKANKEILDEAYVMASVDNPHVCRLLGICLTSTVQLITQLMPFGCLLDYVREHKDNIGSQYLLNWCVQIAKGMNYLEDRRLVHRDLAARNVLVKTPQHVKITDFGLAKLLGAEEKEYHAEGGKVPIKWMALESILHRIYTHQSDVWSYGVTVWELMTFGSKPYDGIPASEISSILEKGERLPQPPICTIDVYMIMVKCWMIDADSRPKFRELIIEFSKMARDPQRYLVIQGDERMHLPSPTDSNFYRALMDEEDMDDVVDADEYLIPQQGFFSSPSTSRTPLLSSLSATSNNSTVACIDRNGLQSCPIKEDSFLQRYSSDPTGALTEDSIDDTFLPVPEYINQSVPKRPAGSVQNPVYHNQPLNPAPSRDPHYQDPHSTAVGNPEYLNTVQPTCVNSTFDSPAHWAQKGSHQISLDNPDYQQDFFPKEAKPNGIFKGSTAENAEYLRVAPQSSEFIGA
Sequence of pEGFR (Tyr1068) in PC-9 cells (Ex19Del) (P00533 other isoform, or with tags, fused parts or gaps del 746-750): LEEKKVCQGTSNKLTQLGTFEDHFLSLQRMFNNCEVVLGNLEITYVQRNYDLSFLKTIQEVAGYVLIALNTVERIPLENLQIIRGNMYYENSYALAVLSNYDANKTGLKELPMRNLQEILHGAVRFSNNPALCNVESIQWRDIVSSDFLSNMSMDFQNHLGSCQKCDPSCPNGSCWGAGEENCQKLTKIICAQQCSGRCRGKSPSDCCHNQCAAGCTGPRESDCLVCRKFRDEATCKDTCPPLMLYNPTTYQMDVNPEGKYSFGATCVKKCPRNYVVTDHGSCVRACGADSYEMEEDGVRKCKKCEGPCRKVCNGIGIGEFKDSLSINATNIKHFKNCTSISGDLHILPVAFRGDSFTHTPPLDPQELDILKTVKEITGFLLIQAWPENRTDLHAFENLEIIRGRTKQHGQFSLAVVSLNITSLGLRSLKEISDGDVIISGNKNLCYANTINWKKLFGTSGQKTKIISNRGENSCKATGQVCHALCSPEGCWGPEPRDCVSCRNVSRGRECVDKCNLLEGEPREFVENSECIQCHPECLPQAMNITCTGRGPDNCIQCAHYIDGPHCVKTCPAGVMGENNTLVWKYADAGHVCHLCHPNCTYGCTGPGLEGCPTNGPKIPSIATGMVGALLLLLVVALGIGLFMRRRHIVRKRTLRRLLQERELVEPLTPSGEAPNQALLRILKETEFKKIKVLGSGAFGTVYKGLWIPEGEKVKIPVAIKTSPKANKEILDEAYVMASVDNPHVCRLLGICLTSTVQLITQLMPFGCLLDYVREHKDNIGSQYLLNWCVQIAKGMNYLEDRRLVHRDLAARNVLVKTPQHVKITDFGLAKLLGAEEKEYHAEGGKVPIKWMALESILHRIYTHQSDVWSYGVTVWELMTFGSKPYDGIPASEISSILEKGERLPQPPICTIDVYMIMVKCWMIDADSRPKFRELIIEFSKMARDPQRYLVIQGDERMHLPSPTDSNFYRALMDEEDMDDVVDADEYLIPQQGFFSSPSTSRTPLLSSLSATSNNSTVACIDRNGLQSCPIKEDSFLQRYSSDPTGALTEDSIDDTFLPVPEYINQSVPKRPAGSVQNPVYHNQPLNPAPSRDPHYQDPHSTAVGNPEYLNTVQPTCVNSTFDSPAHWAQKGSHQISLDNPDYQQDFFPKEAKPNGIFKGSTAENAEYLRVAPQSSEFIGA

| IC50 [1] [nM] | IC50 [2] [nM] | IC50 [3] [nM] | SMILES |
| --- | --- | --- | --- |
| 1.4 | 0.9 | 0.8 | CCn1cc(-c2ncnc3cc(OC)c(NC(=O)C4(C(F)(F)F)CC4)nc23)c(-c2ccccc2)n1 [Example 371, N-(4-(1-ethyl-3-phenyl-1H-pyrazol-4-yl)-7-methoxypyrido[3,2-d]pyrimidin-6-yl)-1-(trifluoromethyl)cyclopropane-1-carboxamide] |
| 5.5 | 2.4 | 11.2 | CC(C)Oc1cc2ncnc(-c3cn(C)nc3-c3ccccc3)c2cc1[C@H](C)O (single isomer, unassigned) [Example 113, (S)-1-(7-isopropoxy-4-(1-methyl-3-phenyl-1H-pyrazol-4-yl)quinazolin-6-yl)ethan-1-ol or (R)-1-(7-isopropoxy-4-(1-methyl-3-phenyl-1H-pyrazol-4-yl)quinazolin-6-yl)ethan-1-ol] |
| 0.9 | 0.6 | 0.6 | CCn1ccc(C(=O)Nc2cc3c(-c4cn(C)nc4-c4ccccc4)ncnc3cc2OC)n1 [Example 202, 1-ethyl-N-(7-methoxy-4-(1-methyl-3-phenyl-1H-pyrazol-4-yl)quinazolin-6-yl)-1H-pyrazole-3-carboxamide] |
| 8 | 1 | 4.6 | COc1cc2ncnc(-c3cn(C)nc3-c3ccccc3)c2nc1NC(=O)C1(OC)CC1 [Example 436, 1-methoxy-N-(7-methoxy-4-(1-methyl-3-phenyl-1H-pyrazol-4-yl)pyrido[3,2-d]pyrimidin-6-yl)cyclopropane-1-carboxamide] |
| 0.4 | 0.2 | 1 | COc1cc2ncnc(-c3cn(C)nc3-c3ccc(F)cc3)c2cc1NC(=O)C1CC(F)(F)C1 [Example 212, 3,3-difluoro-N-(4-(3-(4-fluorophenyl)-1-methyl-1H-pyrazol-4-yl)-7-methoxyquinazolin-6-yl)cyclobutane-1-carboxamide] |
| 3.9 | 2.4 | 14.6 | COc1cc2ncnc(-c3cn(C)nc3-c3ccccc3)c2nc1O[C@@H](C)c1cn(C)nn1 [Example 44, (S)-7-methoxy-6-(1-(1-methyl-1H-1,2,3-triazol-4-yl)ethoxy)-4-(1-methyl-3-phenyl-1H-pyrazol-4-yl)pyrido[3,2-d]pyrimidine] |
| 1.7 | 0.9 | 1.1 | COc1cc2ncnc(-c3cn(C)nc3-c3ccccc3)c2cc1NC(=O)[C@@H]1C[C@@H]1C [Example 283, (1R,2S)—N-(7-methoxy-4-(1-methyl-3-phenyl-1H-pyrazol-4-yl)quinazolin-6-yl)-2-methylcyclopropane-1-carboxamide] |
| 4 | 1.9 | 4.3 | COc1cc2ncnc(-c3cn(C)nc3-c3ccccc3)c2cc1NC(=O)C1(CN(C)C)CC1 [Example 189, 1-((dimethylamino)methyl)-N-(7-methoxy-4-(1-methyl-3-phenyl-1H-pyrazol-4-yl)quinazolin-6-yl)cyclopropane-1-carboxamide] |
| 2.4 | 0.6 | 1.6 | COc1cc2ncnc(-c3cn(C)nc3-c3ccc(F)cc3)c2nc1NC(=O)[C@@]12COC[C@@H]1C2 (single isomer, unassigned) [Example 382, (1R,5R)—N-(4-(3-(4-fluorophenyl)-1-methyl-1H-pyrazol-4-yl)-7-methoxypyrido[3,2-d]pyrimidin-6-yl)-3-oxabicyclo[3.1.0]hexane-1-carboxamide or (1S,5S)—N-(4-(3-(4-fluorophenyl)-1-methyl-1H-pyrazol-4-yl)-7-methoxypyrido[3,2-d]pyrimidin-6-yl)-3-oxabicyclo[3.1.0]hexane-1-carboxamide] |
| 3 | 1.5 | 2 | COc1cc2ncnc(-c3cn(C)nc3-c3ccccc3F)c2cc1NC(=O)[C@]12COC[C@H]1C2 (single isomer, unassigned) [Example 241, (1S,5S)—N-(4-(3-(2-fluorophenyl)-1-methyl-1H-pyrazol-4-yl)-7-methoxyquinazolin-6-yl)-3-oxabicyclo[3.1.0]hexane-1-carboxamide or (1R,5R)—N-(4-(3-(2-fluorophenyl)-1-methyl-1H-pyrazol-4-yl)-7-methoxyquinazolin-6-yl)-3-oxabicyclo[3.1.0]hexane-1-carboxamide] |
| 1.8 | 1.4 | 2.5 | CCOc1cc2ncnc(-c3cn(C(C)C)nc3-c3ccccc3)c2cc1[C@H](C)O (single isomer, unassigned) [Example 110, (S)-1-(7-ethoxy-4-(1-isopropyl-3-phenyl-1H-pyrazol-4-yl)quinazolin-6-yl)ethan-1-ol or (R)-1-(7-ethoxy-4-(1-isopropyl-3-phenyl-1H-pyrazol-4-yl)quinazolin-6-yl)ethan-1-ol] |
| 1.3 | 1.8 | 1.9 | COc1cc2ncnc(-c3cn(C)nc3-c3ccc(F)cc3F)c2nc1NC(=O)C12CC(C1)C2 [Example 421, N-(4-(3-(2,4-difluorophenyl)-1-methyl-1H-pyrazol-4-yl)-7-methoxypyrido[3,2-d]pyrimidin-6-yl)bicyclo[1.1.1]pentane-1-carboxamide] |
| 6.8 | 1.2 | 3.2 | COc1cc2ncnc(-c3cn(C)nc3-c3ccccc3)c2cc1NC(=O)[C@]12COC[C@H]1C2 (single isomer, unassigned) [Example 260, (1S,5S)—N-(7-methoxy-4-(1-methyl-3-phenyl-1H-pyrazol-4-yl)quinazolin-6-yl)-5-methyl-3-oxabicyclo[3.1.0]hexane-1-carboxamide or (1R,5R)—N-(7-methoxy-4-(1-methyl-3-phenyl-1H-pyrazol-4-yl)quinazolin-6-yl)-3-oxabicyclo[3.1.0]hexane-1-carboxamide] |
| 5.1 | 3.3 | 3.5 | COc1cc2ncnc(-c3cn(C)nc3-c3ccc(F)cc3)c2cc1NC(=O)c1cn(C)nc1C [Example 305, N-(4-(3-(4-fluorophenyl)-1-methyl-1H-pyrazol-4-yl)-7-methoxyquinazolin-6-yl)-1,3-dimethyl-1H-pyrazole-4-carboxamide] |
| 3.9 | 2.4 | 6 | C[C@@H](O)c1cc2c(-c3cn(CC(F)F)nc3-c3ccccc3)ncnc2cc1O[C@H]1CCOC1 (single isomer, unassigned) [Example 118, (R)-1-(4-(1-(2,2-difluoroethyl)-3-phenyl-1H-pyrazol-4-yl)-7-(((S)-tetrahydrofuran-3-yl)oxy)quinazolin-6-yl)ethan-1-ol or (S)-1-(4-(1-(2,2-difluoroethyl)-3-phenyl-1H-pyrazol-4-yl)-7-(((S)-tetrahydrofuran-3-yl)oxy)quinazolin-6-yl)ethan-1-ol] |
| 3.4 | 1.3 | 3.1 | COc1cc2ncnc(-c3cn(C)nc3-c3ccccc3)c2nc1NC(=O)c1cn(C(C)C)nc1C [Example 310, 1-isopropyl-N-(7-methoxy-4-(1-methyl-3-phenyl-1H-pyrazol-4-yl)pyrido[3,2-d]pyrimidin-6-yl)-3-methyl-1H-pyrazole-4-carboxamide] |
| 1.2 | 0.8 | 0.3 | CN1CCC(n2cc(-c3ccc4c(-c5cn(C)nc5-c5ccccc5)ncnc4c3)cn2)CC1 [Example 438, 4-(1-methyl-3-phenyl-1H-pyrazol-4-yl)-7-(1-(1-methylpiperidin-4-yl)-1H-pyrazol-4-yl)quinazoline] |
| 2.9 | 7 | 55.7 | CCC(=O)Nc1cc2c(-c3cnn(CC(F)F)c3-c3ccccc3)ncnc2cc1OC [Example 500] |
| 3.9 | 1.2 | 7.7 | COc1cc2ncnc(-c3cn(C)nc3-c3ccccc3)c2nc1NC(=O)c1cn(C(F)(F)F)nc1C [Example 428, N-(7-methoxy-4-(1-methyl-3-phenyl-1H-pyrazol-4-yl)pyrido[3,2-d]pyrimidin-6-yl)-3-methyl-1-(trifluoromethyl)-1H-pyrazole-4-carboxamide] |
| 2.9 | 1.6 | 8 | CC(C)Oc1cc2ncnc(-c3cn(C)nc3-c3ccccc3)c2cc1OC(C)C [Example 26, 6,7-diisopropoxy-4-(1-methyl-3-phenyl-1H-pyrazol-4-yl)quinazoline] |

| SMILES | IC50 [1] [nM] | IC50 [2] [nM] | IC50 [3] [nM] |
| --- | --- | --- | --- |
| COc1cc2ncnc(-c3cn(C)nc3-c3ccccc3)c2cc1OC(=O)N1CCN(C)CC1(C)C [Example 78, 7-methoxy-4-(1-methyl-3-phenyl-1H-pyrazol-4-yl)quinazolin-6-yl 2,2,4-trimethylpiperazine-1-carboxylate] | 7 | 2.4 | 8.1 |
| CCn1cc(-c2ncnc3cc(OC)c(OC(=O)N4CCN(C)C[C@@H]4C)cc23)c(-c2ccccc2)n1 [Example 95, 4-(1-ethyl-3-phenyl-1H-pyrazol-4-yl)-7-methoxyquinazolin-6-yl(S)-2,4-dimethylpiperazine-1-carboxylate] | 3 | 1.7 | 2.4 |
| COc1cc2ncnc(-c3cn(C)nc3-c3ccccc3)c2cc1OC(=O)N1[C@H](C)CN(C)C[C@H]1C [Example 89, 7-methoxy-4-(1-methyl-3-phenyl-1H-pyrazol-4-yl)quinazolin-6-yl (2R,6R)-2,4,6-trimethylpiperazine-1-carboxylate] | 5.4 | 1.9 | 5.7 |
| CCOc1cc2ncnc(-c3cn(C)nc3-c3ccccc3)c2cc1OC(=O)N1CCN(C)C[C@@H]1C [Example 96, 7-ethoxy-4-(1-methyl-3-phenyl-1H-pyrazol-4-yl)quinazolin-6-yl(S)-2,4-dimethylpiperazine-1-carboxylate] | 1.6 | 1.1 | 1.9 |
